# Measured values as given in PMC11020070, “Discovery of Protease-Activated Receptor 4 (PAR4)-Tethered Ligand Antagonists Using Ultralarge Virtual Screening” (ACS Pharmacology & Translational Science, 2024).
# “Also recorded” adds a separate entry of the source.
# Key:
# PAR1 [1] = target: T1, PAR1 (Homo sapiens, UniProt P25116); experiment: Human platelet activation by PAR1 agonist peptide SFLLRN; assay type: cell-based; details: 10 μM compound, PAR1AP SFLLRN
# T1 construct: endogenous in cells; host or cells: platelets
# T1 sequence (P25116 22-425): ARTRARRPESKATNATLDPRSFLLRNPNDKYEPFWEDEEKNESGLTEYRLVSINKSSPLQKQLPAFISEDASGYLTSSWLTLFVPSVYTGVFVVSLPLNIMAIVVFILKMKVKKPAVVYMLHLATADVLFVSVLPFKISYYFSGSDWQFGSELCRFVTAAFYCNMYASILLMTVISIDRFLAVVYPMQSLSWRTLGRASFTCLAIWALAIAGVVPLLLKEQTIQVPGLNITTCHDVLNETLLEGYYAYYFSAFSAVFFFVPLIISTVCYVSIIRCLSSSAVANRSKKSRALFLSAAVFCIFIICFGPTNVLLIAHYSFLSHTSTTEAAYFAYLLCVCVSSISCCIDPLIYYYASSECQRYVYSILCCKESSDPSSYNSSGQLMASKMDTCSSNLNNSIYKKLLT
# Description: (§1) Figure 5 (A) Off-target controls: % of vehicle control for γ-thrombin (100 nM), PAR4 component of α-thrombin (5 nM α-thrombin +1 μM vorapaxar), PAR4 agonist peptide 200 μM AYPGKF, 200 μM PAR1 agonist peptide SFLLRN, and GPVI agonist convulxin 3.16 nM.
# (§2) Compounds were screened for inhibition activity against human PAR4 using 100 nM γ-thrombin or 200 μM PAR4-AP in a single-point assay (10 μM test compound). Dose–response curves were conducted for active compounds. Active compounds were also assessed at a single concentration of 10 μM against other agonists, including the PAR4 component of α-thrombin (5 nM α-thrombin +1 μM vorapaxar), the PAR1 agonist peptide (20 μM SFFLRN), and the GPVI receptor agonist convulxin (3 nM).
# GPVI receptor = target: T2, GPVI receptor (Homo sapiens, UniProt Q9HCN6); experiment: Off-target control: convulxin activation of GPVI receptor in human platelets; assay type: cell-based; details: 10 μM compound, convulxin 3.16 nM
# T2 construct: endogenous in cells; host or cells: washed human platelets
# T2 sequence (Q9HCN6 21-339): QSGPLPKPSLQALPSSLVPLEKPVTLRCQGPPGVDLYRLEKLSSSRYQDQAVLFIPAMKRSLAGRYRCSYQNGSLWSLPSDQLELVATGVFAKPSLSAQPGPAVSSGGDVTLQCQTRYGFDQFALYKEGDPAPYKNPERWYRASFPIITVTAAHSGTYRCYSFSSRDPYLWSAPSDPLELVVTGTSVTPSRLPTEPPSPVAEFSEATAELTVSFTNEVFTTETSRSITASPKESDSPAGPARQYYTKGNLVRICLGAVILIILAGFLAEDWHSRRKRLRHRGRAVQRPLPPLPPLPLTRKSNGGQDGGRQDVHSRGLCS
# T2 sequence (P30273 19-86 partner): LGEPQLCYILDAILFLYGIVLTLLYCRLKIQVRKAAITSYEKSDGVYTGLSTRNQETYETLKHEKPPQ
# Description: The hit compound (7) was tested against several platelet activators including targeting PAR1, PAR4, and GPVI collagen receptors (Figure 5). […] Taken together, the inhibition of the off-target GPVI and the divergence of the inhibition of the γ-thrombin readouts PAC1 vs P-selectin are consistent with the C5 compound not being a specific antagonist of PAR4.
# as §1, §2
# thrombin = thrombin (Homo sapiens, UniProt P00734); experiment: Fluorometric assay of in vitro thrombin activity; assay type: biochemical
# Source text: The enamine-purchased 7 compound was confirmed using mass spectrometry and ^1H NMR (data not shown) and then was independently resynthesized at Vanderbilt University (VU).
# (1 picture or pasted object on this page, not shown here)
# PAR1 [2] = target: T1, PAR1; experiment: PAR1 component of α-thrombin activation (α-thrombin + BMS-3) in platelets; assay type: cell-based; details: read-out: PAR1 IC50 (Figure 6D)
# Source text: Figure 6 (A) Distribution of IC50 values for the inhibition of human PAR4 vs mouse PAR4. Red indicates the 2 compounds highlighted in panels (B–D). (B) Structures of exemplar compounds. (C) Concentration–response curves for human vs mouse PAR4. (D) Concentration–response curves for the inhibition of pharmacologically defined α-thrombin components for PAR1 (α-thrombin + BMS-3) vs PAR4 (α-thrombin + vorapaxar).
# α-thrombin activates both PAR1 and PAR4, and the individual PAR1 or PAR4 component can be isolated pharmacologically. […] With 20 substitutions between PAR1 and PAR4 within 5 Å of the predicted 31 binding site, the basis for these selectivity differences is not known (Figure S4). As we continue to probe for a selective PAR4 antagonist, mutagenesis of individual residues will be conducted.
# PAR4 = target: T3, PAR4 (Homo sapiens, UniProt Q96RI0); experiment: Schild analysis, progressive fold-shift against γ-thrombin in platelets; assay type: cell-based; design: endogenous in cells; host or cells: platelets; details: for mode of inhibition: against γ-thrombin activation; for Schild plot slope m: slope of linear regression, γ-thrombin, 20 min pretreatment
# T3 sequence (Q96RI0 18-385): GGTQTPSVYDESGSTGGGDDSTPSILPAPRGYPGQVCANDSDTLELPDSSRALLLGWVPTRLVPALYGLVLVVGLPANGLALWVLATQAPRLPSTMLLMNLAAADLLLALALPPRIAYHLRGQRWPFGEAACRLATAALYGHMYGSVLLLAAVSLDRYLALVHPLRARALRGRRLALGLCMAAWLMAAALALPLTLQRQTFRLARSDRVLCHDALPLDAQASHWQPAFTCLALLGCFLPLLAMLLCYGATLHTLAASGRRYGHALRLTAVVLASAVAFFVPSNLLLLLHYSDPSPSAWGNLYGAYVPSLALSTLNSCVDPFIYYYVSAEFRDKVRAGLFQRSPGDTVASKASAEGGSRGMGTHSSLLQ
# Description: A Schild analysis was performed on compounds 12 and 31 to determine the mode of inhibition of these compounds.
# Figure 7 Schild analysis progressive fold-shift experiments. (A) Platelets were pretreated with increasing concentrations of each antagonist for 20 min prior to activation with increasing concentrations of γ-thrombin. (B) Logarithmic transformation of the dose ratio plotted versus the logarithm of compound concentration. m = slope of linear regression. TEXT PRINTED IN THE PICTURE: (B) 12: m = 0.99 | (D) 31: m = 0.95
compound,measurement,setting,value
Cc1nc(NC(=O)c2cc(-c3ccccc3)n(-c3ccccc3)n2)n[nH]1 [Compound 7],inhibition of PAR1 agonist peptide activation,PAR1 [1],did not inhibit
same,inhibition of convulxin activation of GPVI receptor,GPVI receptor,did not inhibit
same,direct inhibition of thrombin enzymatic activity,thrombin,do not inhibition; also recorded: failed to directly inhibit
O=C(Nc1n[nH]c(-c2ccc(F)cc2F)n1)c1nn(-c2ccccc2)c2c1CCCC2 [Compound 31],IC50,PAR1 [2],1.51 µM
same,mode of inhibition,PAR4,competitive
same,Schild plot slope m,PAR4,0.95
Cn1nc(C(=O)Nc2n[nH]c(-c3c(F)cccc3F)n2)cc1C1CC1 [Compound 12],IC50,PAR1 [2],5.81 µM
same,mode of inhibition,PAR4,competitive
same,Schild plot slope m,PAR4,0.99
Cc1cc(C(=O)Nc2n[nH]c(OC(F)F)n2)nn1-c1ccccc1 [Compound 9],direct inhibition of thrombin enzymatic activity,thrombin,do not inhibition
